These results are taken from patent publication US20090143279A1 (priority 2007, published 2009).

The structures appear in SMILES notation. Like-named read-outs stand apart in the source and are kept apart here.

Assay [1] has as its system mitochondrial membrane potential. Format: cell-based, mouse.
The test system of assay [2] is reactive oxygen species. Format: cell-based, mouse.
Assay [3] has as its system OXPHOS gene expression. The class given is cell-based, mouse.
Assay [4] deals with nuOXPHOS transcripts. Format: cell-based, mouse.
Assay [5] relates to mtOXPHOS transcripts. The class given is cell-based, mouse.
The subject of assay [6] is cytochrome c. The class given is cell-based, mouse.
The test system of assay [7] is C2C12 myotubes.
The subject of assay [8] is cellular dehydrogenase activity.
The mark [9] stands for this setting: composite Z-score vs mock-treated (DMSO) wells, Conc 20 μM.
Setting [10] is: normalized composite Z-score vs mock-treated (DMSO) wells, Conc 20 μM.
Setting [11] is: Table 7, C2C12 myotubes, 48 h, composite Z-score.
The mark [12] stands for this setting: composite Z-score vs DMSO, Conc 20 μM.
Setting [13] is: 20 μM, composite Z-score vs DMSO.
The mark [14] stands for this setting: 25.78 μM, composite Z-score vs DMSO.
The mark [15] stands for this setting: composite Z-score vs DMSO wells, Conc 20 μM.
[16] abbreviates: Conc 20 μM, normalized score vs mock-treated (DMSO) wells.

Consider `C=C1[C@@H]2CC[C@@]3(C)[C@H](c4ccoc4)OC(=O)C[C@]13O[C@H]1CC(=O)C(C)(C)[C@H](CC(=O)OC)[C@]12C` [angolensic acid, methyl ester], for which the ΔΨm in assay [1] (setting [9]) is 0.163. The compound further came in with an ROS in assay [2] (setting [9]) of 0.465. Also, in assay [3] (setting [9]), the GE-HTS is reported as 0.827. Moreover, in assay [4] (setting [9]), the nucOX came to 0.729. In assay [5] (setting [9]), the mitoOX is on record as 0.813. This compound registered a cyt c in assay [6] (setting [9]) of −0.204. This compound also yielded a Viability in assay [7] (setting [9]) of 1.019. This compound gave an MTT in assay [8] (setting [9]) of 0.322.
The compound `COc1ccc2c(=O)c(CC(=O)O)coc2c1` [anhydrobrazilic acid, reference compound] showed a ΔΨm in assay [1] (setting [10]) of −0.353. Further, in assay [2] (setting [10]), the ROS is given as 0.388. The GE-HTS in assay [3] (setting [10]) is listed as 1.730. The “nucOXPHOS Z” value in assay [4] (setting [11]) worked out at 1.56. This compound returned a nucOX in assay [4] (setting [10]) of 1.559. Also, the “mito-OXPHOS Z” value in assay [5] (setting [11]) came to 1.68. The same compound had a mitoOX in assay [5] (setting [10]) of 1.678. In addition, the cyt c in assay [6] (setting [10]) came to 0.579. The Viability in assay [7] (setting [10]) is given as −0.072. In assay [8] (setting [10]), the MTT is listed as −1.007.
`O[C@H]1[C@H](O)[C@@H](O)C2OC[C@H]1O2` [anhydroglucose] had a ΔΨm in assay [1] (setting [12]) of −0.480. Further, in assay [2] (setting [12]), the ROS came out at 0.238. In assay [3] (setting [12]), the GE-HTS is reported as −0.046. Moreover, the nucOX in assay [4] (setting [12]) is on record as 0.322. In assay [5] (setting [12]), this compound returned a mitoOX of −0.745. For the same compound, the cyt c in assay [6] (setting [12]) amounted to 0.688. The same compound registered a Viability in assay [7] (setting [12]) of 0.168. The MTT in assay [8] (setting [12]) was determined as 0.041.
`CC1=C(/C=C/C(C)=C/C=C/C(C)=C/C=C/C=C(C)/C=C/C=C(C)/C=C/[C@@]23O[C@]2(C)C[C@@H](O)CC3(C)C)C(C)(C)C[C@H](O)C1` [antheraxanthin] showed a ΔΨm in assay [1] (setting [10]) of −0.305. In addition, the ROS in assay [2] (setting [10]) stood at 0.244. Also, the GE-HTS in assay [3] (setting [10]) is recorded as 0.013. Moreover, in assay [4] (setting [10]), the nucOX came out at 0.026. In assay [5] (setting [10]), this compound displayed a mitoOX of −0.011. The cyt c in assay [6] (setting [10]) is −0.206. In assay [7] (setting [10]), this compound came in with a Viability of −0.496. In assay [8] (setting [10]), this compound displayed an MTT of −0.804.
Consider `O=c1cc(-c2ccc(O)cc2)oc2cc(O[C@@H]3O[C@H](CO)[C@@H](O)[C@H](O)[C@H]3O[C@@H]3OC[C@](O)(CO)[C@H]3O)cc(O)c12` [apiin], for which the ΔΨm in assay [1] (setting [12]) turned out to be 0.029. Moreover, the ROS in assay [2] (setting [12]) is given as 0.322. This compound also displayed a GE-HTS in assay [3] (setting [12]) of −0.032. For the same compound, the nucOX in assay [4] (setting [12]) is listed as −0.150. Besides, the mitoOX in assay [5] (setting [12]) is on record as 0.250. This compound also came in with a cyt c in assay [6] (setting [12]) of −0.697. Besides, in assay [7] (setting [12]), the Viability is recorded as −0.631. In assay [8] (setting [12]), this compound yielded an MTT of −1.444.
`CN[C@@H]1[C@@H](O[C@H]2O[C@H](CO)[C@@H](N)[C@H](O)[C@H]2O)OC2C[C@@H](N)[C@@H](O[C@H]3[C@H](O)[C@@H](O)[C@H](N)C[C@@H]3N)OC2[C@@H]1O` (stereo partly shown) [apramycin]: the ΔΨm in assay [1] (setting [12]) was −0.407. This compound gave an ROS in assay [2] (setting [12]) of −0.105. The GE-HTS in assay [3] (setting [12]) stood at 0.477. The compound also returned a nucOX in assay [4] (setting [12]) of 0.413. In assay [5] (setting [12]), the mitoOX turned out to be 0.494. The same compound returned a cyt c in assay [6] (setting [12]) of 0.223. In assay [7] (setting [12]), this compound yielded a Viability of −1.979. Moreover, the MTT in assay [8] (setting [12]) was −0.808.
With `COC(=O)C1=CCCN(C)C1` [arecoline], the figures for the ΔΨm in assay [1] (setting [13]) and in assay [1] (setting [14]) were −0.451 and −0.281, respectively. Further, the values for the ROS in assay [2] (setting [13]) and in assay [2] (setting [14]) were −1.032 and −1.084, respectively. Besides, the GE-HTS in assay [3] (setting [13]) is listed as −0.545; in assay [3] (setting [14]), 0.098. For the same compound, the results for the nucOX in assay [4] (setting [13]) and in assay [4] (setting [14]) were −0.261 and 0.385, respectively. The mitoOX in assay [5] (setting [13]) is −1.072; in assay [5] (setting [14]), −0.513. In addition, the cyt c in assay [6] (setting [13]) amounted to 0.839; in assay [6] (setting [14]), 0.503. The values for the Viability in assay [7] (setting [13]) and in assay [7] (setting [14]) were 0.018 and 0.481, respectively. The MTT in assay [8] (setting [13]) was −0.452; in assay [8] (setting [14]), −0.607.
The compound `C[C@@H]1CC[C@H]2[C@@H](C)C(=O)O[C@@H]3O[C@@]4(C)CC[C@@H]1[C@]32OO4` [artemisinin] showed a ΔΨm in assay [1] (setting [15]) of −0.832. Further, in assay [2] (setting [15]), the ROS is reported as 0.123. The compound also gave a GE-HTS in assay [3] (setting [15]) of 0.704. The compound further displayed a nucOX in assay [4] (setting [15]) of 0.537. Also, the mitoOX in assay [5] (setting [15]) was 0.903. Also, the results for the cyt c in assay [6] and in assay [6] (setting [15]) were 0.522 and 1.104, respectively. This compound showed a Viability in assay [7] (setting [15]) of 0.336. The compound further had an MTT in assay [8] (setting [15]) of 0.616.
The compound `CCCCCC(=O)Cc1cc(O)cc(O)c1C(=O)Oc1cc(CC(=O)CCCCC)c(C(=O)O)c(OC)c1` [arthonioic acid] displayed a ΔΨm in assay [1] (setting [12]) of −0.493. In assay [2] (setting [12]), this compound showed an ROS of 1.167. The GE-HTS in assay [3] (setting [12]) is on record as −0.668. In assay [4] (setting [12]), the nucOX was −0.590. In addition, the mitoOX in assay [5] (setting [12]) is on record as −0.657. This compound also displayed a cyt c in assay [6] (setting [12]) of −0.019. This compound came in with a Viability in assay [7] (setting [12]) of −0.413. The compound further had an MTT in assay [8] (setting [12]) of −2.597.
Consider `CC1=CC(=O)C2=C(C)C[C@H](O)[C@@H]3[C@H](OC(=O)[C@H]3C)[C@H]12` [austricine], for which, in assay [1] (setting [16]), the “ΔΨm (composite Z-score)” value is −0.711. The “ROS (composite Z-score)” value in assay [2] (setting [16]) is given as 0.665. Also, the “GE-HTS (composite Z-score)” value in assay [3] (setting [16]) is on record as 0.165. Moreover, the “nucOX (composite Z-score)” value in assay [4] (setting [16]) came to 0.081. Further, in assay [5] (setting [16]), the “mitoOX (composite Z-score)” value was found to be 0.349. Besides, the “cyt c (composite Z-score)” value in assay [6] (setting [16]) came to 0.842. Moreover, the “Viability (composite Z-score)” value in assay [7] (setting [16]) is given as −0.394. Moreover, the “MTT (composite Z-score)” value in assay [8] (setting [16]) is listed as −1.268.
As to `C#CCCCCCCCCCCCC(O)CC(O)CO` (stereo not shown) [avocadyne], the ΔΨm is given as −0.029 in assay [1] (setting [12]) and −0.266 in assay [1] (setting [10]). Also, the ROS in assay [2] (setting [12]) amounted to 0.611; in assay [2] (setting [10]), 0.322. Besides, the GE-HTS in assay [3] (setting [12]) is listed as −1.062; in assay [3] (setting [10]), 0.405. Also, the figures for the nucOX in assay [4] (setting [12]) and in assay [4] (setting [10]) were −1.019 and 0.457, respectively. The mitoOX in assay [5] (setting [12]) is reported as −0.897; in assay [5] (setting [10]), 0.242. The cyt c in assay [6] (setting [12]) is −0.049; in assay [6] (setting [10]) it was 0.738. In addition, the results for the Viability in assay [7] (setting [12]) and in assay [7] (setting [10]) were −0.546 and 0.816, respectively. The MTT is recorded as −0.646 in assay [8] (setting [12]) and −0.369 in assay [8] (setting [10]).
`C/C=C(\C)C(=O)O[C@H]1C[C@@H](OC(C)=O)[C@@]2(C(=O)OC)CO[C@H]3[C@@H](O)[C@@](C)([C@]45O[C@@]4(C)[C@H]4C[C@@H]5O[C@@H]5OC=C[C@@]54O)[C@H]4[C@]1(CO[C@]4(O)C(=O)OC)[C@@H]32` [azadirachtin]: in assay [1] (setting [12]), the ΔΨm is reported as −0.670. This compound also displayed an ROS in assay [2] (setting [12]) of 0.494. Further, the GE-HTS in assay [3] (setting [12]) is 0.119. Besides, the nucOX in assay [4] (setting [12]) is given as 0.152. Also, the mitoOX in assay [5] (setting [12]) is recorded as 0.042. The compound further came in with a cyt c in assay [6] (setting [12]) of −0.421. Further, the Viability in assay [7] (setting [12]) is on record as −0.479. In assay [8] (setting [12]), this compound yielded an MTT of −1.018.
